Data from patent US5770688A, “Method and composition for the treatment of mammalian HIV infection” (GSF-Forschungszentrum fur Umwelt und Gesundheit GmbH, priority 1989, dated 1998).

Assays:
Rauscher leukemia virus = experiment: Example 2: Rauscher leukemia virus (RLV) model; assay type: in vivo, Balb/c mice
From the text: As noted earlier, the Rauscher leukemia virus (RLV) model has been used successfully to test a number of compounds like nucleoside analogues, that is, AZT, and which has been utilized, heretofore, to inhibit HIV replication. This is discussed in further detail in the article authored by R. M. Ruprechet, et. al. and which is entitled Development of Antiviral Treatment Strategies in Murin Models, RES. Human Retroviruses, 8,997-1011 (1992). Those skilled in the art will recognized that RLV belongs to the Onkoviruses, which is a subfamily of the retrovirus family, and not to the Lentiviruses family, such as is the case with HIV. Therefore, the RLV model provides a suitable basis upon which one may test substances which interfere with the replication steps which are common, or similar, among related retroviruses. As noted earlier, inasmuch as the melittin (Seq. ID NO:1) appears to inhibit HIV transcription in vitro, then it appears that RLV is a suitable model to test the effect of melittin on in vivo replication inhibition.
The source of virus for the present example was secured from the leukemic spleens of RLV infected Balb/c mice. The virus titer of the pool of leukemic spleens was determined by titration. This titration method is discussed in the article authored by Schmidt et al., "Endogenous Murine Leukemia Viruses: frequency of radiation-activation and novel pathogenic effects of viral isolates." Leukemia Research 12, 393-403, (1988). The spleens were secured from 8 to 10 week old inbreed female Balb/c mice, and further from in mouse embryo fibroblasts. As noted earlier, virus replication in mice normally has been determined by the development of leukemia in the spleen. Additionally, the determination of in vitro virus replication has been measured heretofore by the number of virus protein producing cells which are stained with anti-RLV antibodies in an immuno-peroxidase staining test (IPF). Aliquots of the virus solutions were stored in liquid nitrogen and were again titrated in the fashion as noted above.
Stock virus solutions were diluted to provide solutions having a virus concentration of approximately 7×10^6 infectious units per milliliter. Following preparation of the solutions, 0.5 ml of these viral solutions were injected intraperitoneally (ip) into Balb/c mice that were 8 to 10 weeks old. […] As will be recognized by a study of FIG. 43 and FIG. 48, and following infection with the RLV, nearly 100% of the mice developed leukemia (splenomegaly) within approximately three weeks. […] The mean spleen weight development became less prominent. This is best seen by reference to FIG. 48 and in particular groups 8, 9 and 10.

HIV-infected LC5 cells = experiment: MTT toxicity/killing of HIV infected cells (Biomek 1000); assay type: cell-based, human
Experimental: The KE37-1 (uninfected) and KE37-1/111β (infected) cell lines discussed below are commercially available from the Dr. Robert Gallows Laboratory of the NIH in the United States of America and grown in a medium of RPMI 1640 (GIBCO) and further supplemented with 10% fetal calf serum which contained approximately 100 units of penicillin, 100 μg streptomycin, and approximately 0.25 μg fungizone (Amphotericin B) per milliliter. The human mesenchymal cell lines LC5 and LC5-HIV, discussed below, are deposited with the Collection De L'Institut Pasteur of Paris, France on Mar. 9, 1989 and given the accession numbers I-842 and I-843, respectively. The LC5 and LC5-HIV cell lines were grown in a medium of RPMI 1640 and supplemented with 10% fetal calf serum.
A series of experiments and which are illustrated graphically in FIGS. 6 through 34, respectively, were designed to detect two extremes. In particular the tests were designed to detect the inhibition of viral release and/or the release of virus which has a reduced ability to infect other cells. This reduced ability to infect other cells is represented, for example, by glycosylation inhibitors, the direct effect on virus release is represented by acylation inhibitors, RT inhibitors and melittin (Seq. ID NO:1). The most important feature of this experimental design, however, is to detect the toxicity of melittin. The present experiments were carried out on both the astrocytoma cell line LC5-HIV (cloned infected cells) and T-lymphocytoma cell line KE37-1/IIIβ (cloned infected cells with HTLV-IIIβ). In both cases the results were essentially identical.
In the present series of experiments HIV release was tested by a fully automated laboratory robot system and which is manufactured by Beckman Instruments as the Biomek 1000. This system performed the following steps. First, chronically infected cells (cloned) are plated in microtiter plates and grown for a period of seven days. They are then challenged by melittin (Seq. ID NO:1) during this period either for the final day or throughout the period as shown in the figures. The number of living cells are quantified by MTT, that is by a metabolic (dehydrogenase) test. The MTT test is automatically performed. The toxic effect is detected at the time of the experiment and not in a separate control experiment. Furthermore, the supernatant, and which contains released virus cells from the period of time which elapsed from the last wash, and which may vary from 24 hours to 7 days, is collected from the culture, and an aliquot is saved for virus quantification by employing antigen or viral enzyme reverse transcriptase (RT). Furthermore, an aliquot is added to a culture of uninfected cells in microtiter plates for subsequent measurement of the ability of the virus cells to reinfect these uninfected cells. In this regard, the number of infected cells is automatically quantified by an immunoperoxidase staining technique. The test results, as shown, are expressed in terms of toxicity of the melittin (MTT test); the release of HIV from the primary culture (RT test); and the ability of the released virus to infect previously uninfected cells.

[1] = all treated groups, regardless of schedule
[2] = group 1, after infection, intervals of 4 days
[3] = group 2, after infection, intervals of 2 days
[4] = group 3, after infection, daily

Q: For “Gly-Ile-Gly-Ala-Val-Leu-Lys-Val-Leu-Thr-Thr-Gly-Leu-Pro-Ala-Leu-Ile-Ser-Trp-Ile-Lys-Arg-Lys-Arg-Gln-Gln-Amide [melittin]”, which “animals that developed leukemia” value (Rauscher leukemia virus; [1]) is on record?
A: 70%

Q: What about the mean spleen weight (Rauscher leukemia virus; [1]) of the same substance?
A: 1.2 grams

Q: What about the “spleen weights, treated vs untreated, in words” value (Rauscher leukemia virus; days 5 and 10, five administrations before and six after infection) of the same substance?
A: quite similar with only a slight difference appearing on day 10

Q: What about the “leukemic animals, in words” value (Rauscher leukemia virus; days 5 and 15 (so in the source)) of the same substance?
A: no leukemic animals could be found on days 5 and 15

Q: And the leukemic animals (Rauscher leukemia virus; [2])?
A: 4 out of 6

Q: What about the mean spleen weight (Rauscher leukemia virus; [2]) of the same substance?
A: 1.1 grams

Q: What about the leukemic animals (Rauscher leukemia virus; [3]) of the same substance?
A: 5 out of 6

Q: And the mean spleen weight (Rauscher leukemia virus; [3])?
A: 1.3 grams

Q: And the mean spleen weight (Rauscher leukemia virus; group 2, pre-treated, 5 injections, FIG. 45)?
A: 1.5 grams

Q: What about the leukemic animals (Rauscher leukemia virus; [4]) of the same substance?
A: 5 out of 6

Q: And the mean spleen weight (Rauscher leukemia virus; [4])?
A: 1.1 grams

Q: And the mean spleen weight (Rauscher leukemia virus; group 3, pre-treated, 4 injections, FIG. 45)?
A: 1.5 grams

Q: And the mean spleen weight (Rauscher leukemia virus; group 4, pre-treated, 3 injections, FIG. 45)?
A: 1.3 grams

Q: What about the mean spleen weight (Rauscher leukemia virus; group 5, once before infection and five times later in four day intervals) of the same substance?
A: approximately 1.3 grams

Q: And the “number of leukemic animals” value (Rauscher leukemia virus; group 6, day 15, ten analyzed)?
A: one

Q: What about the mean spleen weight (Rauscher leukemia virus; group 6, single injection 12 hours before infection) of the same substance?
A: 1.1 grams

Q: What about the mean spleen weight (Rauscher leukemia virus; group 7, single injection 24 hours before infection) of the same substance?
A: 0.7 grams

Q: And the “animals that develop leukemia” value (Rauscher leukemia virus; group 8, day 21)?
A: 7 out of 10

Q: What about the mean spleen weight (Rauscher leukemia virus; group 8, day 21) of the same substance?
A: 1.2 grams

Q: What about the mean spleen weight (Rauscher leukemia virus; group 8, single injection 6 hours before infection) of the same substance?
A: 0.9 grams

Q: And the “development of leukemia, in words” value (Rauscher leukemia virus; pre-treated animals, FIG. 45)?
A: nearly all of the pre-treated animals also developed leukemia

Q: And the “killing concentration compared with concentration for effect on HIV release” value (HIV-infected LC5 cells)?
A: ten times higher than the effect on HIV release

Q: And the “lysis of HIV-infected LC5 cells” value (HIV-infected LC5 cells)?
A: able to lyse HIV-infected LC5 cells

Q: And the “selectivity for infected cells, in words” value (HIV-infected LC5 cells; FIGS. 6-19)?
A: appears to not selectively affect the infected cells

Q: What about the “critical concentration at which all infected cells were killed” value (HIV-infected LC5 cells; infected) of the same substance?
A: 10 μg per ml
